Read-outs that look alike come from different tables or passages of the source.
Columns and labels:
[1] = test system: liver cancer (3 cell lines); assay: CellTiter-Glo Viability Assay, liver cancer; assay type: cell-based; conditions: Homo sapiens, inhibition of cancer cell proliferation
CLK3 = CLK3 (Homo sapiens, UniProt P49761); assay: CLK3 kinase activity assay (Z-lyte, Ser/Thr 18 peptide)
[2] = test system: pancreatic cancer (8 cell lines); assay: CellTiter-Glo Viability Assay, pancreatic cancer; assay type: cell-based; conditions: Homo sapiens, inhibition of cancer cell proliferation
[3] = test system: prostate cancer (5 cell lines); assay: CellTiter-Glo Viability Assay, prostate cancer; assay type: cell-based; conditions: Homo sapiens
CLK2 = molecular target: T1, CLK2 (Homo sapiens, UniProt P49760); assay: CLK2 kinase activity assay (Z-lyte, Ser/Thr 6 peptide); assay type: biochemical; conditions: recombinant CLK2 kinase, ATP 60 μM; read-out: EC50
T1 construct: purchased Thermo Fisher (Life Technologies), Z'-LYTE Kinase Assay Kits
Procedure: All reactions were performed in duplicate.

[4] = test system: colorectal cancer (6 cell lines); assay: CellTiter-Glo Viability Assay, colorectal cancer; assay type: cell-based; conditions: Homo sapiens, inhibition of cancer cell proliferation
[5] = test system: lung cancer (4 cell lines); assay: CellTiter-Glo Viability Assay, lung cancer; assay type: cell-based; conditions: Homo sapiens, inhibition of cancer cell proliferation
HCC1599 = assay: CellTiter-Glo Viability Assay, breast cancer; assay type: cell-based; conditions: Homo sapiens, 96 h; HCC1599, breast cancer, four days; read-out: EC50
T47D = assay: CellTiter-Glo Viability Assay, breast cancer; assay type: cell-based; conditions: Homo sapiens, 96 h, breast cancer, four days, read-out: EC50
BT-549 = assay: CellTiter-Glo Viability Assay, breast cancer; assay type: cell-based; conditions: Homo sapiens, 96 h; BT-549, breast cancer, four days; read-out: EC50
MCF7 = assay: CellTiter-Glo Viability Assay, breast cancer; assay type: cell-based; conditions: Homo sapiens, 96 h; MCF7, breast cancer, four days; read-out: EC50
ZR-75-1 = assay: CellTiter-Glo Viability Assay, breast cancer; assay type: cell-based; conditions: Homo sapiens, 96 h; ZR-75-1, breast cancer, four days; read-out: EC50
DU4475 = assay: CellTiter-Glo Viability Assay, breast cancer; assay type: cell-based; conditions: Homo sapiens, DU-4475, 96 h; DU4475, breast cancer, four days; read-out: EC50
CAMA1 = assay: CellTiter-Glo Viability Assay, breast cancer; assay type: cell-based; conditions: Homo sapiens, CAMA-1, 96 h; CAMA1, breast cancer, four days; read-out: EC50
MDA-MB-231-Luc = assay: CellTiter-Glo Viability Assay, breast cancer; assay type: cell-based; conditions: Homo sapiens, 96 h; MDA-MB-231-Luc, breast cancer, four days; read-out: EC50
all 50 cell lines = assay: CellTiter-Glo Viability Assay, average across all cell lines; assay type: cell-based; conditions: Homo sapiens; across all 50 cell lines; read-out: average EC50 for inhibition of cancer cell proliferation
Outline: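 Human cancer cell lines from breast, colorectal, haematopoietic/lymphoid, liver, lung, ovarian, pancreatic and prostate tumours were seeded at 300-3,000 cells/well and exposed to compound in duplicate for four days at 37° C, 5% CO2. Viable cells were measured by ATP luminescence; EC50 values came from dose-response curves.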

[6] = test system: ovarian cancer (4 cell lines); assay: CellTiter-Glo Viability Assay, ovarian cancer; assay type: cell-based; conditions: Homo sapiens, inhibition of cancer cell proliferation

Sequence of CLK3 (P49761 whole entry): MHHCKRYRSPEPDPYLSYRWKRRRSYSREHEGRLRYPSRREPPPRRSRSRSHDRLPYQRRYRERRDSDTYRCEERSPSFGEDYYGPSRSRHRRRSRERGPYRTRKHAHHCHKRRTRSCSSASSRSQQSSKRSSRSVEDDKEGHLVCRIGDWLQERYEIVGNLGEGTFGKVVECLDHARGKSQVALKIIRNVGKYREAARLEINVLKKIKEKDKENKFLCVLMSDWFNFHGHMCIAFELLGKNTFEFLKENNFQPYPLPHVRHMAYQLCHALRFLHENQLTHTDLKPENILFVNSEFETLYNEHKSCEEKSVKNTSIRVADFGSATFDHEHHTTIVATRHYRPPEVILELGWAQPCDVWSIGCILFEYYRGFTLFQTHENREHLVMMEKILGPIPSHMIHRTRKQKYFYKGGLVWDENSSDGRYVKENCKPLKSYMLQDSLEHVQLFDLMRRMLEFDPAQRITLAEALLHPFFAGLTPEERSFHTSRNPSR
T1 sequence (P49760 whole entry): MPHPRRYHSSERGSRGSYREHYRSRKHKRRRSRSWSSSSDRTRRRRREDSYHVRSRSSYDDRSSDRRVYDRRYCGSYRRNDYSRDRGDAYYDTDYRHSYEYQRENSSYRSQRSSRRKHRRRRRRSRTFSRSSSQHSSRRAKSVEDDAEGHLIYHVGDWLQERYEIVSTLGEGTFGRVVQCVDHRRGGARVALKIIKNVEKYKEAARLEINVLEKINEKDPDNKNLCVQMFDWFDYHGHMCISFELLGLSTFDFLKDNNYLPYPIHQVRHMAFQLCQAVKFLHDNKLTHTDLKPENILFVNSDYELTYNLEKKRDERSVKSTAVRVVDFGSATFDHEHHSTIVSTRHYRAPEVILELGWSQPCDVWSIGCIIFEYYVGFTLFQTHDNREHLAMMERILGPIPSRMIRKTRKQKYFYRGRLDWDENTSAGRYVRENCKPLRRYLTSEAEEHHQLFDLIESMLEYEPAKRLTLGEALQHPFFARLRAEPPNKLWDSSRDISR

In the case of `CN(C)CCOc1cc(C(=O)Nc2cc3cc(-c4cnn(C)c4)ccc3cn2)ccn1` [Compound 73], the EC50 ([1]; SNU-398, SNU398 cell line, read-out: Liver cancer, EC50 SNU398) is reported as 88 nM, the EC50 ([1]; HEPG2 cell line, read-out: Liver cancer, EC50 HEPG2) is reported as 383 nM and the EC50 ([1]; PLC/PRF/5 cell line, read-out: Liver cancer, EC50 PLC/PRF/5) is reported as 674 nM. It also gave an EC50 (CLK3) of 31.2 nM, an EC50 ([2]; BXPC-3, BxPC3 cell line, read-out: Pancreatic cancer, EC50 BxPC3) of 451 nM and an EC50 ([2]; CAPAN-1, Capan1 cell line, read-out: Pancreatic cancer, EC50 Capan1) of 249 nM. It also gave an EC50 ([2]; Capan-2, Capan2 cell line, read-out: Pancreatic cancer, EC50 Capan2) of 555 nM, an EC50 ([2]; MIA PaCa-2 cell line, read-out: Pancreatic cancer, EC50 MIA PaCa-2) of 141 nM and an EC50 ([2]; PANC 05.04 cell line, read-out: Pancreatic cancer, EC50 PANC 05.04) of 232 nM. The EC50 ([2]; PANC-1 cell line, read-out: Pancreatic cancer, EC50 PANC-1) was 401 nM, the EC50 ([2]; UPAFII cell line, read-out: Pancreatic cancer, EC50 UPAFII) was 203 nM and the EC50 ([3]; DU-145, read-out: Prostate cancer EC50 Du-145) was 308 nM. The EC50 ([3]; PC-3, PC3 cell line, inhibition of cancer cell proliferation, read-out: Prostate cancer EC50 PC3) was 302 nM, the EC50 ([3]; 22Rv1 cell line, inhibition of cancer cell proliferation, read-out: Prostate cancer EC50 22Rv1) was 194 nM and the EC50 ([3]; LNCap clone FGC cell line, inhibition of cancer cell proliferation, read-out: Prostate cancer EC50 LNCap clone FGC) was 526 nM. The EC50 ([3]; VCaP (Sigma) cell line, inhibition of cancer cell proliferation, read-out: Prostate cancer EC50 VCaP (Sigma)) was 430 nM, the EC50 (CLK2) was 1.9 nM and the EC50 ([4]; HCT-116, HCT116 cell line, read-out: Colorectal cancer, EC50 (μM) HCT116) was 0.155 µM. The EC50 ([4]; HT-29, HT29 cell line, read-out: Colorectal cancer, EC50 (μM) HT29) was 0.385 µM, the EC50 ([4]; SW-620, SW620 cell line, read-out: Colorectal cancer, EC50 (μM) SW620) was 0.13 µM and the EC50 ([4]; DLD-1 cell line, read-out: Colorectal cancer, EC50 (μM) DLD-1) was 0.241 µM. The EC50 ([4]; SW48 cell line, read-out: Colorectal cancer, EC50 (μM) SW48) was 0.105 µM, the EC50 ([4]; SW480 cell line, read-out: Colorectal cancer, EC50 (μM) SW480) was 0.16 µM and the EC50 ([5]; A-427, A427 cell line, read-out: Lung cancer, EC50 (μM) A427) was 0.29 µM. It also gave an EC50 ([5]; HCC78, HCC-78 cell line, read-out: Lung cancer, EC50 (μM) HCC-78) of 0.504 µM, an EC50 ([5]; NCI-H460 cell line, read-out: Lung cancer, EC50 (μM) NCI-H460) of 0.396 µM and an EC50 ([5]; NCI-H522 cell line, read-out: Lung cancer, EC50 (μM) NCI-H522) of 0.144 µM. The EC50 (HCC1599) was 73 nM, the EC50 (T47D) was 534 nM and the EC50 (BT-549) was 272 nM. It also gave an EC50 (MCF7) of 914 nM, an EC50 (ZR-75-1) of 467 nM and an EC50 (DU4475) of 163 nM. For the same molecule, the EC50 (CAMA1) was 379 nM, the EC50 (MDA-MB-231-Luc) was 374 nM and the EC50 (all 50 cell lines) was 306 nM. For the same molecule, the EC50 ([6]; PA-1, PA1 cell line, read-out: Ovarian cancer, EC50 (μM) PA1) was 0.325 µM, the EC50 ([6]; TOV112D, TOV-112D cell line, read-out: Ovarian cancer, EC50 (μM) TOV-112D) was 0.165 µM and the EC50 ([6]; OV-90 cell line, read-out: Ovarian cancer, EC50 (μM) OV-90) was 0.486 µM. For the same molecule, the EC50 ([6]; OVCAR-3 cell line, read-out: Ovarian cancer, EC50 (μM) OVCAR-3) was 0.123 µM.
